# US20050004126A1 (priority 2001, published 2005)
# Target: MMP-13CD (catalytic domain of collagenase 3) (Homo sapiens, UniProt P45452)
# Assay: Thiopeptolide hydrolysis assay, MMP-13;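 also: inhibition of enzymatic thiopeptolide substrate cleavage (100 µM) in pH 6.0 MES buffer with CaCl2 and DTNB, comparing hydrolysis with versus without inhibitor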
# Conditions: IC50 μM, Table V; MMP-13
row,SMILES,IC50
1,"COC(=O)Cc1ccc(Cn2c(=O)c3cc(C(=O)NCc4ccc5c(c4)OCO5)ccc3n3cnnc23)cc1 [Methyl (4-{7-[(1,3-benzodioxol-5-ylmethyl)-carbamoyll-5-oxo-5H-[1,2,4]triazolo[4,3-a]quinazolin-4-ylmethyl}-phenyl)-acetate]",0.0022 µM
2,"COc1ccc(CNC(=O)c2ccc3c(c2)c(=O)n(CCOc2ccc(Cl)cc2)c2nncn32)cc1 [4-[2-(4-Chloro-phenoxy)-ethyl]-5-oxo-4,5-dihydro-[1,2,4]triazolo[4,3-a]quinazoline-7-carboxylic acid 4-methoxy-benzylamide]",0.0865 µM
3,"O=C(OCc1ccccc1)c1ccc2c(c1)c(=O)n(Cc1ccccc1)c1nncn21 [Synthesis Example 55, Benzyl 4-benzyl-5-oxo-4H-[1,2,4]triazolo[4,3-a]quinazol-7-ylcarboxylate]",0.0034 µM
4,"COC(=O)c1ccc(Cn2c(=O)c3cc(C(=O)NCc4ccc5c(c4)OCO5)ccc3n3cnnc23)cc1 [Methyl 4-{7-[(1,3-benzodioxol-5-ylmethyl)-carbamoyl]-5-oxo-5H-[1,2,4]triazolo[4,3-a]quinazol-4-ylmethyl}benzoate]",0.0011 µM
5,"O=C(NCc1ccc2c(c1)OCO2)c1ccc2c(c1)c(=O)n(Cc1ccccc1)c1nccn21 [4-Benzyl-5-oxo-4,5-dihydro-imidazo[1,2-a]quinazoline-7-carboxylic acid (benzo[1,3]dioxol-5-ylmethyl)-amide]",0.165 µM

# The next lines start with the values.
row,IC50,SMILES
1,0.0042 µM,"O=C(O)c1ccc(Cn2c(=O)c3cc(C(=O)NCc4ccncc4)ccc3n3cnnc23)cc1 [4-{7-[(Pyridin-4-ylmethyl)-carbamoyl]-5-oxo-5H-[1,2,4]triazolo[4,3-a]quinazol-4-ylmethyl} benzoic acid]"
2,0.021 µM,"N#Cc1ccc(Cn2c(=O)c3cc(C(=O)NCc4ccncc4)ccc3n3cnnc23)cc1 [N-(pyridin-4ylmethyl)-4-(4-cyanobenzyl)-5-oxo-4H-[1,2,4]triazolo[4,3-a]quinazol-7-ylcarboxamide]"

# Same assay, conditions: IC50 μM, Table VII; MMP-13
row,IC50,SMILES
1,0.0017 µM,"COC(=O)c1ccc(Cn2c(=O)c3cc(C#CCc4ccc(OC)cc4)ccc3n3cnnc23)cc1 [Synthesis Example 73, Methyl 4-{7-[3-(4-methoxy-phenyl)-prop-1-ynyl]-5-oxo-5H-[1,2,4]triazolo[4,3-a]quinazolin-4-ylmethyl}-benzoate]"
2,0.0055 µM,"O=c1c2cc(C#CCc3ccccc3)ccc2n2cnnc2n1Cc1ccccc1 [Synthesis Example 71, 4-Benzyl-7-(3-phenyl-prop-1-ynyl)-4H-[1,2,4]triazolo[4,3-a]quinazolin-5-one]"

# Same assay, conditions: MMP 13 IC50 μM, Table III
row,IC50,SMILES
1,0.018 µM,COc1ccc(CNC(=O)c2cc3c(=O)n(Cc4ccc5nocc5c4)c(=O)n(C)c3s2)cc1
2,0.0505 µM,COc1cccc(CNC(=O)c2cc3c(=O)n(Cc4ccc5cocc5c4)c(=O)n(C)c3s2)c1

# Same assay, conditions: MMP13 IC50 μM, Table IVb
row,SMILES,IC50
1,COc1ccc(CNC(=O)c2ccc3c(c2)c(=O)n(Cc2ccc(C(=O)OCC(=O)OC(C)(C)C)cc2)c(=O)n3C)cc1,0.088 µM
2,COC(=O)CCn1c(=O)c2cc(C(=O)NCc3ccc(OC)cc3)ccc2n(C)c1=O,2.1 µM
3,"Cn1c(=O)n(Cc2ccccc2)c(=O)c2cc(SCc3ccccc3)ccc21 [3-Benzyl-6-benzylsulfanyl-1-methyl-1H-quinazoline-2,4-dione]",4.1 µM
4,Cn1c(=O)c2cc(C(=O)NCc3ccc4c(c3)OCO4)ncc2n(C)c1=O,0.18 µM
5,COc1ccc(CNC(=O)c2ccc3c(c2)c(=O)n(Cc2ccc(-c4ccccc4C#N)cc2)c(=O)n3C)cc1,0.025 µM
6,COC(=O)/C=C/Cn1c(=O)c2cc(C(=O)NCc3ccc(OC)cc3)ccc2n(C)c1=O,0.315 µM
7,CCN(CC)c1ccc(C(=O)Cn2c(=O)c3cc(C(=O)NCc4ccc(OC)cc4)ccc3n(C)c2=O)cc1,3.64 µM
8,Cn1c(=O)c2cc(C(=O)NCc3ccc4c(c3)OCO4)cnc2n(C)c1=O,3.85 µM
9,"Cn1c(=O)n(Cc2ccccc2)c(=O)c2cc(C(=O)CCc3ccccc3)ccc21 [3-Benzyl-1-methyl-6-(3-phenyl-propionyl)-1H-quinazoline-2,4-dione]",2.9 µM
10,COc1ccc(CNC(=O)c2ccc3c(c2)c(=O)n(Cc2ccc(S(=O)(=O)NCCN(C)C)cc2)c(=O)n3C)cc1,0.055 µM
11,COc1ccc(CNC(=O)c2ccc3c(c2)c(=O)n(Cc2ccc(C(=O)OCCN(C)C)c(C)c2)c(=O)n3C)cc1,0.11 µM
12,COc1ccc(CNC(=O)c2ccc3c(c2)c(=O)n(Cc2ccc(C(=O)OCOC(=O)C(NC(=O)C(N)C(C)C)C(C)C)cc2)c(=O)n3C)cc1 (centres unmarked),0.039 µM

# The next lines start with the values.
row,IC50,SMILES
1,0.004 µM,COc1ccc(CNC(=O)c2ccc3c(c2)c(=O)n(Cc2ccc(-c4nnn(C)n4)cc2)c(=O)n3C)cc1
2,0.001 µM,COc1ccc(CNC(=O)c2ccc3c(c2)c(=O)n(Cc2ccc(C(=O)O)c(F)c2)c(=O)n3C)cc1
3,0.14 µM,COC(=O)c1ccc(Cn2c(=O)c3cc(C(=O)NCc4ccc(OC)cc4)ccc3n(C)c2=O)cc1Cl
4,0.0045 µM,COc1ccc(CNC(=O)c2ccc3c(c2)c(=O)n(Cc2ccc(C(=O)O)c(OC)c2)c(=O)n3C)cc1
5,0.0009 µM,Cn1c(=O)n(Cc2ccc(C(=O)O)cc2)c(=O)c2cc(C(=O)NCc3ccc4c(c3)OCO4)ccc21
6,0.057 µM,Cn1c(=O)n(Cc2ccc(O)cc2)c(=O)c2cc(C(=O)NCc3ccncc3)ccc21
7,0.067 µM,Cn1c(=O)n(Cc2cccc(F)c2)c(=O)c2cc(C(=O)NCc3cccnc3)ccc21
8,0.026 µM,Cn1c(=O)n(Cc2ccccc2)c(=O)c2cc(C(=O)NCCCSc3ccncc3)ccc21
9,0.0018 µM,Cn1c(=O)n(Cc2ccc(C(=O)O)cc2)c(=O)c2cc(C(=O)NCc3ccc(F)cc3)ccc21
10,0.011 µM,Cn1c(=O)n(Cc2ccc(CC(=O)O)cc2)c(=O)c2cc(C(=O)NCc3ccncc3)ccc21
11,1.45 µM,COc1ccc(CNC(=O)c2ccc3c(c2)c(=O)n(CCn2cccc2)c(=O)n3C)cc1
12,0.29 µM,COC(=O)c1ccc(Cn2c(=O)c3cc(C(=O)NCc4ccc(OC)cc4)ccc3n(C)c2=O)o1
13,0.008 µM,COc1ccc(CNC(=O)c2ccc3c(c2)c(=O)n(Cc2ccc(C#N)cc2)c(=O)n3C)cc1
14,0.057 µM,COc1ccc(CNC(=O)c2ccc3c(c2)c(=O)n(Cc2ccc(C(=O)O)o2)c(=O)n3C)cc1
15,0.43 µM,COc1ccc(CNC(=O)c2ccc3c(c2)c(=O)n(Cc2ccccn2)c(=O)n3C)cc1
16,0.037 µM,COc1ccc(CNC(=O)c2ccc3c(c2)c(=O)n(Cc2ccc(C(=O)OCCN(C)C)cc2)c(=O)n3C)cc1
17,0.0665 µM,COc1ccc(CNC(=O)c2ccc3c(c2)c(=O)n(Cc2ccc(C4(C(=O)OC(C)(C)C)CC4)cc2)c(=O)n3C)cc1

row,IC50,SMILES
1,0.009 µM,CCOC(=O)c1ccc(Cn2c(=O)c3cc(C(=O)NCc4ccc(OC)cc4)ccc3n(C)c2=O)cc1F
2,0.032 µM,"COc1ccc(CNC(=O)c2cnc3c(c2)c(=O)n(Cc2ccc(F)cc2)c(=O)n3C)cc1 [3-(4-Fluoro-benzyl)-1-methyl-2,4-dioxo-1,2,3,4-tetrahydro-pyrido[2,3-d]pyrimidine-6-carboxylic acid 4-methoxy-benzylamide]"
3,0.021 µM,COc1cccc(CNC(=O)c2ccc3c(c2)c(=O)n(Cc2cccc(F)c2)c(=O)n3C)c1
4,0.01 µM,COC(=O)c1ccc(Cn2c(=O)c3cc(C(=O)NCc4ccc(F)cc4)ccc3n(C)c2=O)cc1
5,3.4 µM,Cn1c(=O)n(Cc2ccccc2)c(=O)c2cc(C(=O)CSc3ccncc3)ccc21
6,0.0016 µM,"COc1ccc(CNC(=O)c2cnc3c(c2)c(=O)n(Cc2ccc(C(=O)O)cc2)c(=O)n3C)cc1 [4-[6-(4-Methoxy-benzylcarbamoyl)-1-methyl-2,4-dioxo-1,4-dihydro-2H-pyrido[2,3-d]pyrimidin-3-ylmethyl]-benzoic acid]"
7,0.017 µM,Cn1c(=O)n(Cc2cccc(F)c2)c(=O)c2cc(C(=O)NCc3ccncc3)ccc21
8,0.018 µM,COc1ccc(CNC(=O)c2ccc3c(c2)c(=O)n(Cc2cccc(C(=O)O)c2)c(=O)n3C)cc1
9,0.0046 µM,COc1cccc(CNC(=O)c2ccc3c(c2)c(=O)n(Cc2ccc(F)cc2)c(=O)n3C)c1
10,0.023 µM,COC(=O)c1ccc(Cn2c(=O)c3cc(C(=O)NCc4ccc(SC)cc4)ccc3n(C)c2=O)cc1
11,0.0044 µM,CNS(=O)(=O)c1ccc(Cn2c(=O)c3cc(C(=O)NCc4ccc(OC)cc4)ccc3n(C)c2=O)cc1
12,0.0015 µM,COc1ccc(CNC(=O)c2ccc3c(c2)c(=O)n(Cc2ccc(-c4noc(=O)[nH]4)cc2)c(=O)n3C)cc1
13,0.021 µM,COC(=O)c1ccc(Cn2c(=O)c3cc(C(=O)NCc4ccc(OC)cc4)ccc3n(C)c2=O)s1
14,0.035 µM,COC(=O)c1ccc(Cn2c(=O)c3cc(C(=O)NCc4ccc5nonc5c4)ccc3n(C)c2=O)cc1
15,1.01 µM,C=CCn1c(=O)c2cc(C(=O)NCc3ccc(OC)cc3)ccc2n(C)c1=O
16,0.095 µM,COc1ccc(CNC(=O)c2ccc3c(c2)c(=O)n(C/C=C/c2cccnc2)c(=O)n3C)cc1
17,0.0009 µM,COc1ccc(CNC(=O)c2ccc3c(c2)c(=O)n(Cc2ccc(-c4nn[nH]n4)cc2)c(=O)n3C)cc1

# Same assay, conditions: MMP13 IC50 (nM), Table II
row,IC50,SMILES
1,0.81 µM,COc1ccc(CNC(=O)c2ccc(OC)c(C(=O)NCc3ccccc3)c2)cc1
2,1.5 µM,COc1ccc(CNC(=O)c2ccc(OC)c(C(=O)NCc3ccncc3)c2)cc1
3,2.5 µM,O=C(NCc1ccncc1)c1cccc(C(=O)NCc2ccc(Cl)c(Cl)c2)c1
4,2.1 µM,COc1cccc(CNC(=O)c2cccc(C(=O)NCc3cccc([N+](=O)[O-])c3)c2)c1
5,0.4 µM,"COc1ccc(C(=O)NCc2ccc3c(c2)OCO3)cc1C(=O)NCc1ccc(Cl)cc1 [N-1,3-Benzodioxol-5-ylmethyl-N′-(4-chloro-benzyl)-4-methoxy-isophthalamide]"

# Same assay, conditions: MMP13 IC50 (μM), Table 1b
row,IC50,SMILES
1,0.4 µM,CCC(C)n1c(=O)c(C)c2sc(C(=O)NCc3ccc(F)cc3)cn2c1=O (centres unmarked)
2,0.16 µM,CC/C=C/Cn1c(=O)c(C)c2sc(C(=O)NCc3ccc(F)cc3)cn2c1=O
3,1.85 µM,COC(=O)c1nc(Cn2c(=O)c(C)c3sc(C(=O)NCc4ccc(F)cc4)cn3c2=O)ncc1OC
4,0.058 µM,Cc1c(=O)n(CCOc2ccccc2)c(=O)n2cc(C(=O)NCc3ccc(F)cc3)sc12
5,0.51 µM,Cc1c(=O)n(CCC(=O)c2ccc(F)cc2)c(=O)n2cc(C(=O)NCc3ccc(F)cc3)sc12

# Same assay, conditions: read-out: MMP 13 IC50 μM; Table III
row,IC50,SMILES
1,4 µM,COc1ccc(CNC(=O)c2cc3c(=O)n(CCS(=O)(=O)c4ccccc4)c(=O)n(C)c3s2)cc1
